Four molecules from patent publication US9072791B2, “Photostabilized pharmaceutical compositions” (DENKI KAGAKU KOGYO KABUSHIKI KAISHA, priority 2008, dated 2015) can be followed below.

Where “and” joins values, the source holds several entries; their conditions need not be identical. Identical values can stand only once. Like-named read-outs stand apart in the source and are kept apart here.

What all share (format): physicochemical
Series [1] in a line: Effect of photostabilizers on the excitation spectra of the HA-MTX conjugate (Example 4(1)). To be noted: fluorescence at 458 nm. As to the method: Various photostabilizers (methyl p-hydroxybenzoate (methyl paraben), salicylic acid Na, thiosulfuric acid Na, and N-acetyltryptophan) were each dissolved in a preparation buffer (0.9% NaCl containing 2 mM phosphate buffer (pH 7.4)) to give a concentration of 9 mg/ml (but 0.9 mg/ml in the case of methyl paraben) and thereafter filtered aseptically by passage through a 0.2-μm filter (Millex GV). […] The test samples and the control were irradiated with light at 300-480 nm and the intensity of fluorescence at 458 nm was measured.

Series [2] can be described thus: Fluorescing of the HA-MTX conjugate upon irradiation with light at specified wavelengths (Example 1). Also noted: key: rated “+” when strong emission was observed after the irradiation; rated “−” when the emission after the irradiation was not different from the emission before the irradiation. As to the method: The HA-MTX conjugate obtained in Production 1 was dissolved in 0.9% NaCl containing 2 mM phosphate buffer (pH 7.3) to give a concentration of 9.9 mg/ml in terms of HA and the solution was irradiated with light at varying wavelengths (260 nm, 310 nm, 360 nm, and 405 nm) using a fluorescence detector for liquid chromatography (product of Hitachi, Ltd.; fluorescence detector of model F1050) to observe the gelation and fluorescing of the conjugate. To evaluate the gelation, the surface of the sample solution was pierced with a spatula and visually checked for the formation of an interface as the result of gelation. To observe fluorescing, the sample was irradiated with exciting light and the state of light emission from the sample was observed by direct visual checking before and after the irradiation; the result was rated “+” when strong emission was observed after the irradiation but rated “−” when the emission after the irradiation was not different from the emission before the irradiation.

The nature of series [3]: Photostability test in glass vials not shielded from light: gelation, molecular weight, percent conjugation of MTX (Example 4(2)). As to the method: Various photostabilizers (methyl p-hydroxybenzoate (methyl paraben), salicylic acid Na, thiosulfuric acid Na, thioglycolic acid Na, N-acetyltryptophan, and tryptophan) were each dissolved in a preparation buffer (0.9% NaCl containing 2 mM phosphate buffer, pH 7.4) to give a concentration of 1 or 10 mg/ml and thereafter filtered aseptically by passage through a 0.2-μm filter (Millex GV). A powder of the HA-MTX conjugate prepared in accordance with Production 1 was metered aseptically and dissolved in the filtered, photostabilizer-containing preparation buffer to give a concentration of 10 mg/mL; the thus prepared solutions were used as test samples. To prepare a control solution, the HA-MTX conjugate was dissolved in a photostabilizer-free preparation buffer at a concentration of 10 mg/mL.
The thus prepared solutions were put into glass vials not shielded from light and then irradiated with light.
The irradiation was so performed as to give an illuminance of 4000 Lux at 25° C. from a fluorescent lamp for use in a photostability test (TOSHIBA FL20S•D-EDL-D65) by means of a photostability tester (ETAC LABONIC LA110). After the lapse of specified periods (0 h, 25 h, 50 h, 100 h, 150 h, and 300 h) of irradiation, samples were taken and not only checked for gelation but also measured for the molecular weight of the HA-MTX conjugate and the percent conjugation of MTX (in the HA-MTX conjugate).
To evaluate the degree of gelation, the surface of each sample solution was pierced with a spatula and visually checked for the formation of an interface as the result of gelation. […] The apparatus used in gel filtration chromatography was equipped with OHpackSB-806HQ (Shodex) as a column, RI-71 (Shodex) as an […], and 875-UV (JASCO, detection wavelength: 304 nm) as a UV detector and analysis was conducted under the following conditions. Eluent: 50 mM sodium phosphate aqueous solution (pH 6.0); elution rate: 0.6 mL/min; column temperature: 40° C. By the above-described gel filtration chromatography, the elution times of the conjugate of interest were determined and the molecular weight of the same conjugate was determined from the relationship between the elution times and molecular weights of standard substances. As the standard substances, hyaluronic acid samples were prepared in varying molecular weights and their accurate values were calculated by the limiting viscosity method before it was used.

Series [4] is described as follows: Photostability test with additional light-shielding film LUMICOOL 1905 (Example 6).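 For all read-outs here: molecular weight and drug conjugation percentage of the test conjugate, both determined by the method given for the first production procedure.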 Conditions: for Molecular weight (×10^4), irradiation time 0 h / Molecular weight (×10^4), irradiation time 150 h / Molecular weight (×10^4), irradiation time 300 h / Percent Conjugation (%), irradiation time 0 h / Percent Conjugation (%), irradiation time 150 h / Percent Conjugation (%), irradiation time 300 h: vial wrapped with LUMICOOL 1905.

Where [5] appears, read: additive 1 mg/ml, 4000 Lux, 25° C., not shielded from light.
Where [6] appears, read: with light-shielding film LUMICOOL 1905.

Consider “MTX-α-PhePhe-NHC2H4NH-HA [HA-MTX conjugate]”, for which the main excitation wavelengths in series [1] (control solution 1 mg/ml, no photostabilizer) was 320-430 nm. Also, the “excitation maximum wavelength (Ex λmax)” value in series [1] was 380 nm. The Fluorescence entry is “−” in series [2] (irradiation at 260 nm), “−” in series [2] (irradiation at 310 nm), “+” in series [2] (irradiation at 360 nm) and “+” in series [2] (irradiation at 405 nm).

Consider `COC(=O)c1ccc(O)cc1` [Methyl paraben, methyl p-hydroxybenzoate], for which, in series [3] (added at 1 mg/mL, not shielded from light), the “suppressing drops in the molecular weight and percent conjugation” value was “could suppress drops in the molecular weight and percent conjugation for irradiation periods that did not exceed about 100 hours”. Moreover, in series [3] (setting [5]), the “Molecular weight (×10^4), irradiation time 0 h” value was 187 ×10^4; the “Molecular weight (×10^4), irradiation time 25 h” value is 155 ×10^4; the “Molecular weight (×10^4), irradiation time 50 h” value is on record as 127 ×10^4; the “Molecular weight (×10^4), irradiation time 100 h” value is reported as 107 ×10^4. For the same molecule, in series [3] (setting [5]), the “Molecular weight (×10^4), irradiation time 150 h” value is reported as 126 ×10^4; the “Molecular weight (×10^4), irradiation time 300 h” value is 65 ×10^4; the “Percent Conjugation (%) of MTX, irradiation time 0 h” value amounted to 2.2%; the “Percent Conjugation (%) of MTX, irradiation time 25 h” value worked out at 2.0%. Also, in series [3] (setting [5]), the “Percent Conjugation (%) of MTX, irradiation time 50 h” value turned out to be 2.1%; the “Percent Conjugation (%) of MTX, irradiation time 100 h” value is 2.0%; the “Percent Conjugation (%) of MTX, irradiation time 150 h” value is reported as 2.1%; the “Percent Conjugation (%) of MTX, irradiation time 300 h” value was determined as 1.9%. Also, the “stabilizing effects (suppressing effects on the drop in molecular weight and the drop in percent conjugation of MTX)” value in series [4] is “comparable to those obtained in the case where complete shielding of light was ensured by aluminum foil”. In series [4] (additive 1 mg/mL), the “Molecular weight (×10^4), irradiation time 0 h” value is 187 ×10^4; the “Molecular weight (×10^4), irradiation time 150 h” value is recorded as 184 ×10^4; the “Molecular weight (×10^4), irradiation time 300 h” value was 179 ×10^4; the “Percent Conjugation (%), irradiation time 0 h” value was 2.2%. For the same molecule, in series [4] (additive 1 mg/mL), the “Percent Conjugation (%), irradiation time 150 h” value turned out to be 2.2% and the “Percent Conjugation (%), irradiation time 300 h” value worked out at 2.2%.

Consider `O=C([O-])c1ccccc1O.[Na+]` [Na salicylate, sodium salicylate], for which, in series [3], the “Molecular weight (×10^4), irradiation time 0 h” value is 185 ×10^4 and 186 ×10^4; the “Molecular weight (×10^4), irradiation time 25 h” value is 176 ×10^4 and 172 ×10^4; the “Percent Conjugation (%) of MTX, irradiation time 0 h” value is 2.2%; the “Percent Conjugation (%) of MTX, irradiation time 25 h” value amounted to 2.2%. In series [3], the “Percent Conjugation (%) of MTX, irradiation time 50 h” value is 2.1%; the “Percent Conjugation (%) of MTX, irradiation time 100 h” value is 2.1% and 1.9%; the “Percent Conjugation (%) of MTX, irradiation time 150 h” value was 2.2% and 1.8%; the “Percent Conjugation (%) of MTX, irradiation time 300 h” value was 2.2% and 2.0%. Besides, the “suppressing drops in the molecular weight and percent conjugation” value in series [3] was “considerably effective in suppressing drops in the molecular weight and percent conjugation even when the time of irradiation exceeded 100 hours”. In series [4] (additive 1 mg/mL), the “Molecular weight (×10^4), irradiation time 0 h” value is given as 186 ×10^4; the “Molecular weight (×10^4), irradiation time 150 h” value is 184 ×10^4; the “Molecular weight (×10^4), irradiation time 300 h” value is reported as 163 ×10^4; the “Percent Conjugation (%), irradiation time 0 h” value amounted to 2.2%. Besides, in series [4] (additive 1 mg/mL), the “Percent Conjugation (%), irradiation time 150 h” value was 2.1% and the “Percent Conjugation (%), irradiation time 300 h” value is 2.2%. Besides, in series [4] (additive 10 mg/mL), the “Molecular weight (×10^4), irradiation time 0 h” value is reported as 185 ×10^4; the “Molecular weight (×10^4), irradiation time 150 h” value is listed as 190 ×10^4; the “Molecular weight (×10^4), irradiation time 300 h” value was 179 ×10^4; the “Percent Conjugation (%), irradiation time 0 h” value is listed as 2.2%. Also, in series [4] (additive 10 mg/mL), the “Percent Conjugation (%), irradiation time 150 h” value came out at 2.2% and the “Percent Conjugation (%), irradiation time 300 h” value worked out at 2.1%. In addition, the “stabilizing effects (suppressing effects on the drop in molecular weight and the drop in percent conjugation of MTX)” value in series [4] (setting [6]) is given as “comparable to those obtained in the case where complete shielding of light was ensured by aluminum foil”.

Turning to `O=S([O-])([O-])=S.[Na+].[Na+]` [Na thiosulfate, sodium thiosulfate], in series [3], the “Molecular weight (×10^4), irradiation time 0 h” value is 190 ×10^4 and 181 ×10^4; the “Molecular weight (×10^4), irradiation time 25 h” value was 190 ×10^4 and 145 ×10^4; the “Percent Conjugation (%) of MTX, irradiation time 0 h” value is 2.1% and 2.3%; the “Percent Conjugation (%) of MTX, irradiation time 25 h” value was 2.2% and 2.1%. Besides, in series [3], the “Percent Conjugation (%) of MTX, irradiation time 50 h” value is 2.3% and 1.5%; the “Percent Conjugation (%) of MTX, irradiation time 100 h” value is 2.1% and 0.8%; the “Percent Conjugation (%) of MTX, irradiation time 150 h” value was 2.2% and 0.6%; the “Percent Conjugation (%) of MTX, irradiation time 300 h” value is 2.1% and 0.4%. For the same molecule, in series [3], the “suppressing drops in the molecular weight and percent conjugation” value was “considerably effective in suppressing drops in the molecular weight and percent conjugation even when the time of irradiation exceeded 100 hours”. Further, in series [4] (additive 1 mg/mL), the “Molecular weight (×10^4), irradiation time 0 h” value was 181 ×10^4; the “Molecular weight (×10^4), irradiation time 150 h” value is 186 ×10^4; the “Molecular weight (×10^4), irradiation time 300 h” value is given as 180 ×10^4; the “Percent Conjugation (%), irradiation time 0 h” value is given as 2.3%. Further, in series [4] (additive 1 mg/mL), the “Percent Conjugation (%), irradiation time 150 h” value is listed as 2.2% and the “Percent Conjugation (%), irradiation time 300 h” value was determined as 2.2%. In series [4] (additive 10 mg/mL), the “Molecular weight (×10^4), irradiation time 0 h” value was 190 ×10^4; the “Molecular weight (×10^4), irradiation time 150 h” value is 188 ×10^4; the “Molecular weight (×10^4), irradiation time 300 h” value was 186 ×10^4; the “Percent Conjugation (%), irradiation time 0 h” value amounted to 2.1%. In addition, in series [4] (additive 10 mg/mL), the “Percent Conjugation (%), irradiation time 150 h” value stood at 2.2% and the “Percent Conjugation (%), irradiation time 300 h” value worked out at 2.1%. Further, the “stabilizing effects (suppressing effects on the drop in molecular weight and the drop in percent conjugation of MTX)” value in series [4] (setting [6]) is “comparable to those obtained in the case where complete shielding of light was ensured by aluminum foil”.
